Publication PMC9027111, “Morphing Natural Product Platensimycin via Heck, Sonogashira, and One-Pot Sonogashira/Cycloaddition Reactions to Produce Antibiotics with In Vivo Activity” (Antibiotics, 2022)
≈ marks a conversion by molar mass, not a printed value. Read-outs that look alike come from different tables or passages of the source.

Tests used:
[1] = parameters: method as in PMID 31244223; settings: pooled human liver microsomes; previously reported ref 14; cited from earlier work
[2] = parameters: method as in PMID 31244223; settings: previously reported ref 14; cited from earlier work
MSSA 1 = assay: MIC determination (LB agar dilution), clinical MSSA strain 1; type: cell-based; settings: Staphylococcus aureus, at least two replicates
Experimental: (§1) All of the tested compounds were prepared to different concentrations with methanol, and 150 μL of the respective methanol solution was used to mix with 15 mL LB (Luria–Bertani) medium with 1% agar in each Petri dish. Linezolid and PTM were used as reference compounds for comparison. In vitro bioassay for compounds was carried out using clinical strains of S. aureus, E. coli, and Klebsilla pneumoniae. The bacteria were cultivated in LB medium and incubated for 16 h at 37 °C, 250 rpm. The resulting bacteria were diluted to approximate 0.25 at OD600, which were further diluted 10_4-fold. The diluted bacteria (2 μL) were added to Petri dish containing the respective compounds. The resulting Petri dishes were incubated for 16 h at 37 °C. The determination of MIC is the concentration of Petri dishes with no visible growth of bacteria.

[3] = Stability of A4 in LB agar; type: physicochemical; settings: 8 μg mL−1 in LB agar, 37 °C, 16 h, UPLC
Experimental: Figure S44. Analysis of the stability of A4 from LB agar. Compound A4 (0.1 mg mL−1)
were diluted in 5 mL of LB agar (1.5% v/v) to 8 μg mL−1, and the LB agar plates were
then incubated at 37 °C for 16 h. The LB agar containing A4 was extracted by DCM (3 ×
10 mL), dried with anhydrous Na2SO4 and concentrated in vacuum. The resulting
extracts were analysed by Ultra-Performance Liquid Chromatography.
(1 picture or pasted object on this page, not shown here)

[4] = Metabolic stability assay in pooled human liver microsomes; type: in vitro ADME; settings: pH 7.4, 37 °C, NADPH, read-out: Half-Life in Human Hepatic Microsomes
Experimental: Each compound was incubated in duplicate with pooled human liver microsomes at 37 °C. The tested compounds were pre-incubated with pooled human liver microsomes in phosphate buffer (pH 7.4) for 5 min in a shaking water bath at 37 °C. The reaction was initiated by adding a NADPH-generating system and incubated for 0, 15, 30, 45, and 60 min. The reaction was stopped by transferring the incubation mixture to CH3CN/MeOH. Samples were then mixed and centrifuged. Supernatants were used for HPLC–MS/MS analysis. Data were calculated as percent parent compounds remaining by assuming zero-minute time point peak area ratio (analyte/IS) as 100% and dividing remaining time point peak area ratios by the zero-minute time point peak area ratio. Data were subjected to fit a first-order decay model to calculate both the slope and half-life.

MRSA [5] = assay: Mouse skin infection with MRSA; type: in vivo, BABL/c mice; settings: for load of S. aureus on treated skin: n = 5/group; for healing of the infected skin: topical twice a day for 7 days, observation and H&E staining
Experimental: Mouse MRSA skin infection study was performed as described before. Female BABL/c mice (20–22 g, 7-weeks old) were anesthetized by intraperitoneal injection of 4% chloral hydrate (200 μL), and the hair of mice back surface was removed and washed with povidone iodine–propanol solution. A gauze (15 × 15 mm) was preheated in boiling water (90 °C) for 10 min, and then placed on the back of each mouse for 40 s to generate the burns. Next, the burn was bound with sterile gauze and infected with 1 × 10^8 colony-forming units (CFU) of MRSA. An open wound was witnessed at the burns after 48 h post infection. The infected mice were then divided into three groups (5 per group). A4 (200 μg) was formulated into 2% ointment consisting of 1.4% carbomer, 1.4% triethanolamine, 14% propanediol, 14% glycerinum, and 1% azone. Mupirocin (2% w/w) were used as the positive control, while vehicle used as negative control. All mice were treated twice a day for 7 days. Mice were euthanized after 24 h of the last treatment, and the wound area was slightly swabbed with 70% ethanol. Wound area (1 cm^2) was excised, homogenized, and plated onto TSB agar plates to count viable bacteria. Other skin biopsy specimens removed from the wounds were stored at 4% paraformaldehyde solution to be used for hematoxylin and eosin (HE) staining.

[6] = Plasma protein binding by equilibrium dialysis; type: in vitro ADME; settings: 37 °C; for Plasma Protein Binding Bound %: 5 μM, 6 h; for fraction unbound at 6 h, 5 μM: plasma, read-out: Plasma Protein Binding Free %
Experimental: Equilibrium dialysis was used to determine the plasma protein binding. All of the test compounds were treated in triplicate by RED Rapid Equilibrium Dialysis Device (Thermo Scientific, Waltham, MA, USA). In brief, the initial compound concentration (5 μM) in the plasma chamber was first set, followed by the addition of phosphate buffered saline (PBS) to the receiver chamber. The Equilibrium Dialysis Device was allowed to shake for 6 h in a 37 °C incubator. Then, 25 μL solution was sampled from the plasma and PBS chambers, respectively, and they were diluted with either blank PBS or plasma to achieve a 1:1 ratio of plasma: PBS for all samples. The concentrations of the tested compounds in the plasma and PBS chambers were determined by LC–MS/MS. The fraction bound was calculated as ([plasma]—[PBS])/[plasma].

MRSA 3 = assay: MIC determination (LB agar dilution), clinical MRSA strain 3; type: cell-based; settings: Staphylococcus aureus, at least two replicates
Experimental: as §1

MSSA 2 = assay: MIC determination (LB agar dilution), clinical MSSA strain 2; type: cell-based; settings: Staphylococcus aureus, at least two replicates
Experimental: as §1

S. aureus ATCC 29213 = assay: MIC determination (LB agar dilution), S. aureus ATCC 29213; type: cell-based; settings: Staphylococcus aureus, ATCC29213, at least two replicates
Experimental: as §1

MRSA 4 = assay: MIC determination (LB agar dilution), clinical MRSA strain 4; type: cell-based; settings: Staphylococcus aureus, at least two replicates
Experimental: as §1

MRSA [7] = type: in vivo; settings: for survival rate of the infected mice: 7 days; for survival of infected mice: tracked 7 days; for survival of infected mice / mice died within 24 h: n = 5
[8] = 2 mg topical twice a day for 7 days
[9] = 10 mg/kg intraperitoneal at 1 h and 5 h after infection

SMILES	MIC (MSSA 1) [µg/mL]	half-life [4] [min]	Plasma Protein Binding Bound % [6] [%]	fraction unbound at 6 h, 5 μM [6]	MIC (MRSA 3) [µg/mL]	MIC (MSSA 2) [µg/mL]	MIC (S. aureus ATCC 29213) [µg/mL]	MIC (MRSA 4) [µg/mL]	further results
CCSC1CC(=O)C(C)(CCC(=O)Nc2c(O)ccc(C(=O)O)c2O)C2C3CC4CC12CC4(C)O3 (centres unmarked) [1a, PTM-2t]	–	–	–	–	–	–	–	–	Half-Life in Human Hepatic Microsomes [1]: 22 min; Plasma Protein Binding Bound % [2]: 35%; Plasma Protein Binding Free % [2]: 65%
CC(C)(C)OC(=O)C=CC1=CC23CC4CC(OC4(C)C2)C3C(C)(CCC(=O)Nc2c(O)ccc(C(=O)O)c2O)C1=O (centres unmarked) [A4]	1 (≈ 1.76 µM)	26	98.3	0.017	1 (≈ 1.76 µM)	1 (≈ 1.76 µM)	1 (≈ 1.76 µM)	1 (≈ 1.76 µM)	stability in LB agar [3]: relatively stable; reduction of MRSA on the skin compared to untreated mice (MRSA [5]; [8]): ~ 790 fold; load of S. aureus on treated skin (MRSA [5]; [8]): (1.0 ± 0.3) × 10^6 CFU/g; healing of the infected skin (MRSA [5]): showed the healing of the skin; survival rate of the infected mice (MRSA [7]; 5 mg/kg intraperitoneal at 1 h and 5 h after infection): 60%; survival of infected mice (MRSA [7]; [9]): 60%; survival rate of the infected mice (MRSA [7]; 20 mg/kg intraperitoneal at 1 h and 5 h after infection): 80%; survival rate of the infected mice (MRSA [7]; 30 mg/kg intraperitoneal at 1 h and 5 h after infection): 60%; survival of infected mice (MRSA [7]; 50 mg/kg intraperitoneal at 1 h and 5 h after infection): 20%; survival of infected mice after oral administration (MRSA [7]; 30 and 50 mg/kg by oral gavage): most of the treated mice survived within 48 h
CC12CC34C=C(C=CC(=O)N5CCOCC5)C(=O)C(C)(CCC(=O)Nc5c(O)ccc(C(=O)O)c5O)C3C(CC1C4)O2 (centres unmarked) [A10]	16 (≈ 27.6 µM)	> 120	77	0.23	16 (≈ 27.6 µM)	16 (≈ 27.6 µM)	16 (≈ 27.6 µM)	16 (≈ 27.6 µM)	–
CC12CC34C=C(C#Cc5cccc(F)c5)C(=O)C(C)(CCC(=O)Nc5c(O)ccc(C(=O)O)c5O)C3C(CC1C4)O2 (centres unmarked) [B8]	1 (≈ 1.79 µM)	96	99.4	0.006	1 (≈ 1.79 µM)	1 (≈ 1.79 µM)	1 (≈ 1.79 µM)	1 (≈ 1.79 µM)	mice died within 24 h (MRSA [7]; [9]): 40%
CC(=O)C1=C(C)OC(Cc2ccc(F)cc2)=C2C(=O)C(C)(CCC(=O)Nc3c(O)ccc(C(=O)O)c3O)C3C4CC5CC3(CC5(C)O4)C12 (centres unmarked) [C6]	32 (≈ 48.5 µM)	17	99.6	0.004	32 (≈ 48.5 µM)	32 (≈ 48.5 µM)	32 (≈ 48.5 µM)	32 (≈ 48.5 µM)	–
CC12C[C@@]34C=CC(=O)[C@@](C)(CCC(=O)Nc5c(O)ccc(C(=O)O)c5O)C3[C@H](CC1C4)O2 (some centres unmarked) [PTM, Platensimycin]	1 (≈ 2.27 µM)	–	–	–	1 (≈ 2.27 µM)	1 (≈ 2.27 µM)	1 (≈ 2.27 µM)	1 (≈ 2.27 µM)	Half-Life in Human Hepatic Microsomes [1]: 51 min; Plasma Protein Binding Free % [2]: 34%; survival of infected mice (MRSA [7]; [9]): died after MRSA infection within 24 h
CC12CC34C=C(I)C(=O)C(C)(CCC(=O)Nc5c(O)ccc(C(=O)O)c5O)C3C(CC1C4)O2 (centres unmarked) [compound 4, 6-iodo PTM]	1 (≈ 1.76 µM)	58	87	0.13	1 (≈ 1.76 µM)	1 (≈ 1.76 µM)	1 (≈ 1.76 µM)	1 (≈ 1.76 µM)	mice died within 24 h (MRSA [7]; [9]): 40%
C/C(=C\C(=O)OCCCCCCCCC(=O)O)C[C@@H]1OC[C@H](C[C@@H]2O[C@H]2[C@@H](C)[C@H](C)O)[C@@H](O)[C@H]1O [mupirocin, reference compound]	–	–	–	–	–	–	–	–	load of S. aureus on treated skin (MRSA [5]; [8]): (6.5 ± 2.4) × 10^5 CFU/g; healing of the infected skin (MRSA [5]): showed the healing of the skin
